Results reported in ChEMBL document CHEMBL6074620, “Discovery of a triphenylamine-based ligand that targets mitochondrial DNA G-quadruplexes and activates the cGAS-STING immunomodulatory pathway” (Eur J Med Chem, 2024).
Calls of active or inactive are those of the source. The rule behind the calls is not given here.

Legend:
[1] = molecular target: Quadruplex DNA; assay: Binding affinity to 3-terminal mt6363 DNA (unknown origin) assessed as dissociation constant by TAMRA-labeled G4 quenching assay; format: nucleic-acid assay
[2] = test system: MDA-MB-231; assay: Cytotoxicity against human MDA-MB-231 cells assessed as reduction in cell viability incubated for 24 hrs by CCK-8 assay; format: functional, cell-based; details: MDA-MB-231, 24 h
[3] = test system: 4T1; assay: Cytotoxicity against mouse 4T1 cells assessed as reduction in cell viability incubated for 24 hrs by CCK-8 assay; format: functional, cell-based; details: 4T1, 24 h
[4] = Cytotoxicity against human MCF-10A assessed as cell growth inhibition incubated for 24 hrs by CCK-8 assay; format: toxicity, cell-based; details: MCF-10A cells
[5] = test system: Quadruplex DNA; assay: Stabilization of fluorescently labelled G4-quadruplex mt6363 DNA (unknown origin) assessed as effect on thermal stability of DNA structure by measuring change in melting temperature at 1 uM by FRET melting assay; format: nucleic-acid assay
[6] = Drug localization in mitochondria of mouse 4T1 cells assessed as signal colocalization incubated for 30 mins by MitoTracker Green staining based analysis; format: ADME; details: 4t1, 0.5 h
[7] = test system: 4T1; assay: Induction of apoptosis in mouse 4T1 cells assessed as decrease in PARP level at 5 uM by Western blotting analysis; format: functional, cell-based
[8] = test system: Mitochondrial membrane; assay: Disruption of mitochondrial membrane potential in mouse 4T1 cells assessed as increase green fluorescence at 0 to 5 uM by JC-1 staining based analysis; details: dose 0-5 µM
[9] = test system: 4T1; assay: Induction of ROS generation in mouse 4T1 cells assessed as increase ROS level by DCFH-DA staining based analysis; format: functional, cell-based
[10] = test system: 4T1; assay: Induction of mitochondrial damage in mouse 4T1 cells assessed as dispersion of fluorescence Mitotracker red incubated for 1 hrs and measured after 24 hrs by immunofluorescence analysis; format: functional, cell-based; details: time 25.0 hrs
[11] = test system: 4T1; assay: Induction of mitochondrial damage in mouse 4T1 cells assessed as disappearance of picogreen incubated for 1 hrs and measured after 24 hrs by immunofluorescence analysis; format: functional, cell-based; details: time 25.0 hrs
[12] = test system: 4T1; assay: Induction of ROS generation in mouse 4T1 cells assessed as decrease ROS level at 5 uM in presence of NAC by […] analysis; format: functional, cell-based
[13] = test system: 4T1; assay: Antitumor activity against mouse 4T1 cells implanted with female BALB/c mouse assessed as decrease tumor weight at 2.5 mg/kg, sc administered for every 3 days for 2 weeks and measured on day 21; format: functional, organism-based; details: time 21.0 day
[14] = test system: 4T1; assay: Induction of mitochondrial damage in mouse 4T1 cells assessed as decrease in CytB level at 5 uM in presence of DDC by qPCR analysis; format: functional, cell-based
[15] = Toxicity in female BALB/c mouse implanted with mouse 4T1 cells assessed as body weight loss at 2.5 mg/kg, sc measured every other day for 21 days; format: organism-based; details: in vivo, 504 h, time 21 day
[16] = Toxicity in female BALB/c mouse implanted with mouse 4T1 cells assessed as change in heart weight at 2.5 mg/kg, sc measured after 21 days by Hematoxylin-Eosin staining based analysis; format: organism-based; details: in vivo, 504 h, time 21 day
[17] = Toxicity in female BALB/c mouse implanted with mouse 4T1 cells assessed as change in lungs weight at 2.5 mg/kg, sc measured after 21 days by Hematoxylin-Eosin staining based analysis; format: organism-based; details: in vivo, 504 h, time 21 day
[18] = test system: Mus musculus; assay: Immunostimulatory activity in female BALB/c mouse implanted with mouse 4T1 cells assessed as downregulation of M2 macrophages level 2.5 mg/kg, sc by flow cytometry analysis; format: functional, organism-based
[19] = Toxicity in female BALB/c mouse implanted with mouse 4T1 cells assessed as change in body weight at 2.5 mg/kg, iv administered every 3 days for 2 weeks from day 7; format: organism-based; details: in vivo, 336 h
[20] = test system: Quadruplex DNA; assay: Binding affinity to G4-quadruplex mt6363 DNA (unknown origin) assessed as melting temperature at 10 uM incubated for 2 hrs by fluorescence based analysis; format: nucleic-acid assay
[21] = test system: 4T1; assay: Activation of cGAS-STING signaling pathway in mouse 4T1 cells assessed as increase in IL-6 level up to 5 uM by ELISA analysis; format: cell-based; details: filed as activator
[22] = test system: 4T1; assay: Activation of cGAS-STING signaling pathway in mouse 4T1 cells assessed as increase in TNF-alpha level up to 5 uM by ELISA analysis; format: cell-based; details: filed as activator
[23] = test system: 4T1; assay: Induction of mouse 4T1 cell maturation assessed as increase in CD80 positive cells by flow cytometric analysis; format: functional, cell-based; details: dose <= 5.0 µM
[24] = test system: 4T1; assay: Induction of mouse 4T1 cell maturation assessed as increase in CD86 positive cells by flow cytometric analysis; format: functional, cell-based; details: dose <= 5.0 µM
[25] = test system: Mus musculus; assay: Immunostimulatory activity in female BALB/c mouse implanted with mouse 4T1 cells assessed as change in CD4+ T cells in spleen 2.5 mg/kg, sc by flow cytometry; format: functional, organism-based
[26] = test system: Mus musculus; assay: In-vivo activation of cGAS-STING signaling pathway in female BALB/c mouse assessed as effect on cGAS level in tumor at 2.5 mg/kg, sc by Western blot analysis; format: functional, organism-based
[27] = test system: Mus musculus; assay: In-vivo activation of cGAS-STING signaling pathway in female BALB/c mouse assessed as STING level in tumor at 2.5 mg/kg, sc by Western blot analysis; format: functional, organism-based
[28] = test system: Mus musculus; assay: In-vivo activation of cGAS-STING signaling pathway in female BALB/c mouse assessed as TBK1 level in tumor at 2.5 mg/kg, sc by Western blot analysis; format: functional, organism-based
[29] = test system: 4T1; assay: Antitumor activity against mouse 4T1 cells implanted with female BALB/c mouse assessed as effect on caspase-3 level in tumor at 2.5 mg/kg, sc measured for 21 days; format: functional, organism-based; details: time 21.0 day
[30] = test system: Mus musculus; assay: In-vivo activation of cGAS-STING signaling pathway in female BALB/c mouse assessed as increase in IL-6 level at 2.5 mg/kg, sc by ELISA analysis; format: functional, organism-based
[31] = test system: Mus musculus; assay: In-vivo activation of cGAS-STING signaling pathway in female BALB/c mouse assessed as increase in TNF-alpha level at 2.5 mg/kg, sc by ELISA analysis; format: functional, organism-based

For `COc1ccc(N(c2ccc(/C=C/C3=[N+](C)c4ccc5ccccc5c4C3(C)C)cc2)c2ccc(OC)cc2)cc1.[I-]`, the Kd [1] was 1900 nM, the IC50 [2] was 1800 nM and the IC50 [3] was 1900 nM. For the same compound, the IC50 at 24 h [4] was 9.6 µM, the ΔTm [5] was 28.5 °C and the Drug uptake [6] was “Active”. For the same compound, the Activity [7] was “Active”, the Activity [8] was “Active” and the Activity [9] was “Active”. For the same compound, the Activity [10] was “Active”, the Activity [11] was “Active” and the Activity [12] was “Active”. For the same compound, the Activity [13] was “Active”, the Activity [14] was “Active” and the Activity [15] was “Non-toxic”. The Activity [16] was “Non-toxic”, the Activity [17] was “Non-toxic” and the Activity [18] was “Active”. For the same compound, the Activity [19] was “Non-toxic”, the Tm [20] was 46.2 °C and the Activity [21] was “Active”. For the same compound, the Activity [22] was “Active”, the Activity [23] was “Dose-dependent-effect” and the Activity [24] was “Dose-dependent-effect”. For the same compound, the Activity [25] was “Active”, the Activity [26] was “Active” and the Activity [27] was “Active”. The Activity [28] was “Active”, the Activity [29] was “Active” and the Activity [30] was “Active”. For the same compound, the Activity [31] was “Active”.
